In publication PMC8026785, “The pharmacokinetics of [^18F]UCB-H revisited in the healthy non-human primate brain” (EJNMMI Research, 2021):

Experiments:
[1] = Plasma free fraction by ultrafiltration; type: in vitro ADME; details: NHP plasma, before tracer injection
Method: The fraction of [^18F]UCB-H in NHP plasma samples not bound to plasma protein was measured before PET injection using a previously described ultrafiltration method. In brief, standard amounts of [^18F]UCB-H (≈15 kBq) were added to 200 μL plasma that was applied to Microcon® filtration devices containing an YM-10 membrane (Millipore, France). The devices were centrifuged for 10 min at 10,000 g (Sigma 2-16KL, France). [^18F]UCB-H activity concentration in the resulting ultrafiltrate (≈70 μL, CFP) and a sample of plasma (CP) were counted. The free fraction (fp) was calculated as: fp = CFP/CP and measured in triplicates.

SV2A = target: T1, SV2A (Macaca fascicularis, UniProt Q4R4X3); experiment: Displacement PET studies of [^18F]UCB-H; type: in vivo, cynomolgus monkeys (Macaca fascicularis); details: about half of total uptake displaceable
T1 construct: The current study evaluates [^18F]UCB-H pharmacokinetics in healthy NHPs; from tissue; host or cells: brain of living healthy cynomolgus monkeys (in vivo PET)
Method: All four non-human primates (NHP) underwent a 2-h (2 h) test and retest PET scan; two NHP underwent an additional 4-h (4 h) retest PET scan. Three NHP underwent one 4-h (4 h) displacement PET scan. Arterial blood sampling was performed during test and retest scans with PET imaging spaced by at least 3 weeks between each scan. To this end, the femoral artery opposite to the saphenous vein used for radioligand injection was cannulated. For the 2-h (2 h) scans, we collected in total 28 blood samples of 1 mL: 16 samples during the first 5 min followed by […] every 5 min and […] every 10 min. For the 4 h scans, we collected an additional 6 samples every 20 min during the last two hours (34 samples in total). Larger samples (2 – 3 mL) were collected at 5, 15, 30, 60, 90, 120 min (2 h) and at 180, 240 min (4 h) for metabolite analysis. Displacement of [^18F]UCB-H was done by intravenous (IV) administration 90 min after [^18F]UCB-H injection of a bolus of 30 mg/kg LEV, or of 80 µg/kg (≈250 nmol/kg) or 5 mg/kg (≈15 µmol/kg) of cold [^19F]-UCB-H. Full experimental design of all NHP is outlined in Additional file 1: Table 1.
Solvents and LEV (C8H14N2O2; MM 170.21 g/mol) were obtained at Sigma-Aldrich® (France), and [^19F]-UCB-H (C16H12F4N2O; MM 324.28 g/mol) was synthesised as previously described. Injectable solutions of [^19F]-UCB-H for displacement studies were prepared with a mixture of Tetrahydrofuran (THF), Médialipide® and glucose at 2.5% as previously described. LEV was dissolved in a glucose solution of 2.5% to reach a concentration of 90 mg/mL.
PET image analysis was performed using PMOD software version 3.8 (PMOD Technologies Ltd., Zurich, Suisse). After individual co-registration of PET-MR images, a cynomolgus atlas published by Ballanger and coworkers was normalized to PET images to extract time activity curves in different brain regions. Volumes of interest (VOI) were cerebral white matter (16.7 cm^3), striatum (0.24 cm^3), thalamus (0.89 cm^3), cerebellum (3.83 cm^3), frontal—(2.50 cm^3), parietal—(5.35 cm^3), and temporal (8.22 cm^3) cortex, and whole brain (72.2 cm^3) as a composite region of all regions in the atlas. [^18F]UCB-H pharmacokinetics were evaluated by analyzing the time activity curves of the test- and retest scans using 1- and 2-tissue compartment models (unconstrained and constrained with global K1/k2 coupled fit across all regions, further referred to as 2TCM and 2TCM-c), and Logan graphical analysis with a fixed t* at 60 min [33] using the arterial plasma input function corrected for radio-metabolites to derive the volume of distribution in each region. Percentage standard error (%SE) was estimated from the theoretical parameter covariance matrix. Only reliable estimates (%SE less than 25%) were included in the current analyses. For the three drug studies, percent displacement of the total activity in the whole brain was estimated relative to an average baseline constructed from the two 4 h baseline studies. Briefly, Standardized Uptake Value (SUV) time activity curves (TACs) were calculated for the two baseline and the three displacement studies. Then, each curve was normalized to the SUV at t = 90 min, corresponding to the timeframe immediately before the administration of the drugs in the displacement studies. Baseline curves were averaged and the percent displacement of total activity was calculated as (baseline-displacement)/baseline at a given time post drug administration (see “Results”).

T1 sequence (Q4R4X3 whole entry): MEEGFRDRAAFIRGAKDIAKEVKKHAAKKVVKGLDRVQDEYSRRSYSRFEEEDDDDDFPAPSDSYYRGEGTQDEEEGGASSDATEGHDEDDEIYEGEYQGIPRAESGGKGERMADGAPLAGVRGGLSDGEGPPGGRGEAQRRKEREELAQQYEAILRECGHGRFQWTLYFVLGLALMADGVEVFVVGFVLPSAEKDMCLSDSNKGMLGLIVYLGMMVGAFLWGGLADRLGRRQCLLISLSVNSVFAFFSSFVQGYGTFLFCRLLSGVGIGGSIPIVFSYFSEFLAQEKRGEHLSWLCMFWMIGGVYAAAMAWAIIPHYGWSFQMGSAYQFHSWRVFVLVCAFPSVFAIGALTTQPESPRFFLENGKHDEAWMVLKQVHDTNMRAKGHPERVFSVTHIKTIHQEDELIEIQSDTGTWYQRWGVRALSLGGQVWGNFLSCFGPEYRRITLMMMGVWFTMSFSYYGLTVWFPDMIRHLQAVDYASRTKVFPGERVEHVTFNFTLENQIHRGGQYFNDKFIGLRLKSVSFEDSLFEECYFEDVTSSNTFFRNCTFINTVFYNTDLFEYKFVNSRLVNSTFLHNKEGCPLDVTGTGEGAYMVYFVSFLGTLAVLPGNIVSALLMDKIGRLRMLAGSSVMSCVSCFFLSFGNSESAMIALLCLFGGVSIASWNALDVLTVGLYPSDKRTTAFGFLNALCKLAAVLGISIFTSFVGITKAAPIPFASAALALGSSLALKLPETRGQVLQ

Compound: O=C1C[C@H](c2cc(F)c(F)c(F)c2)CN1Cc1ccncc1[18F] [[^18F]UCB-H]
- Plasma free parent fraction (fp) [1]: 42.6 ± 1.6%
- BPND expected from maximum displacement (SV2A): ~1.0
